The results in this text go back to US20220308068A1, “BIOMARKER IN OSTEOPOROSIS INTERVENTION THERAPY BY BONE PEPTIDE, SCREENING METHOD AND USE THEREOF” (Institute of Food Science and Technology, Chinese Academy …, priority 2019, published 2022).

In the experiment the test system is ovariectomized osteoporosis rat model. Description: non-targeted serum metabolomics (UPLC/Q-TOF-MS). Particulars: ES group vs Model group. Format: in vivo, SD rats. As for the experimental part: 1, the construction of ovariectomized rats models: SD rats are kept in a clean environment under a controlled room temperature at 25±2° C. and alternates 12/12 light and dark every day, and the SD rats feed freely. After one week adaptive feeding, randomly select 8 female rats, anesthetize them with 1% (v/v) pentobarbital sodium (40 mg/kg BW), and remove a little fat near ovaries. The remaining 40 rats are ovariectomized after being anesthetized with pentobarbital sodium. The recovery situation is observed in a 4-week recovery period, and their weight changes are detected. These are prepared by the applicant in advance. (any research about metabolic fingerprint changes of ovariectomized osteoporotic rats after intervention with bone peptide have not been reported according to the existing literature).
2, animal grouping and samples collection: the 8 female rats with a little fat near ovaries removed are selected as a sham-operated group, the ovariectomized 40 rats are randomly divided into 5 groups with 8 rats in each group, and are named by a negative control group, a positive control group, a low-concentration treatment group, a medium-concentration treatment group and a high-concentration treatment group. The rats are perfused by different solutions of bovine bone peptide (diluted by ultrapure water, and sterilized) with concentration of 100 mg/kg, 200 mg/kg, and 500 mg/kg according to the weights of the rats. The rats in the negative control group are perfused with equal volume of ultrapure sterile water (a perfusing volume is generally 1-2 mL/100 g BW), and the rats in the positive control group are perfused with 50 μg/kg of 17β-estradiol (ES). Observe weight changes of the rats and measure the weights every two weeks.
Urine is automatically collected with a metabolic cage for 12 hours every 4 weeks (the urine is collected as much as possible under the premise of ensuring normal signs of the rats). 1 mmol/L NaN3 solution is added into collected urine as a preservative, the collected urine is placed in a centrifuge at 4° C. and centrifuged at a speed of 10000×g for 10 minutes, and the supernatant is collected, distributed and stored in a refrigerator at −80° C. for determining. The rats are fasted for 12 hours at 4th week, 8th week, and 12th week. Fasted rats are anesthetized by intraperitoneal injection of pentobarbital sodium (40 mg/kg BW) with a volume concentration of 1%, and are subjected to blood collection from the abdominal aorta (the blood is collected as much as possible under the premise of ensuring normal signs of the rats). Collected blood is placed at 4° C. for 3 h and is centrifuged (5000 rpm) for 10 minutes. Upper serum is collected (collecting 2 mL of blood, separating into 4 tubes after separating the serum), is divided into 0.5 mL EP tubes, and stored in a refrigerator at −80° C. for later use. The metabolic cage comprises a cage body with a bottom and a metabolite collecting part. The metabolite collecting part is arranged below the cage body and comprises a barrel 1 and a cover 2 mounted on an upper end of a peripheral wall of a first side of the barrel, an upper end of a peripheral wall of a second side of the barrel is provided with a drainage port, and a solid-liquid separating part is arranged in the barrel. The solid-liquid separating part comprises an arc-shaped partition plate 3 with a first end fixed with a peripheral wall of the barrel and multi-stage filter plates 4, which divide an inner space of the barrel into a first accommodating space and a second accommodating space. The multi-stage filter plates are arranged in the second accommodating space along a vertical direction, and the multi-stage filter plates are successively arranged end to end to form a folded-line diversion channel. A depth of a bottom wall of the barrel from the first side to the second side becomes larger. […]

As for `C[C@]12CC[C@@H]3c4ccc(O)cc4CC[C@H]3[C@@H]1CC[C@@H]2O` [ES, 17β-estradiol], the “serum 1-O-(cis-9-octadecenyl)-2-O-acetyl-sn-glycerol-3-phosphocholine change” value was “up-regulated trend”, the “serum 1-oleoyl-sn-glycerol-3-phosphocholine change” value is recorded as “up-regulated trend”, the “serum 1-palmitoyl-sn-glycerol-3-phosphocholine change” value was “up-regulated trend” and the “serum 1-stearoyl-sn-glycerol-3-phosphocholine change” value is on record as “up-regulated trend”. Besides, the “serum L-palmitoyl change” value was “up-regulated trend”, the “serum L-pyroglutamic acid change” value was “down-regulated trend”, the serum isoleucine-arginine change entry is recorded as “down-regulated trend” and the “serum pantothenic acid change” value was “up-regulated trend”.
